From patent US10206937B2, “Boronic acid derivatives and therapeutic uses thereof” (Qpex Biopharma, Inc., priority 2014, dated 2019)

Tested on: strains of Enterobacteriaceae producing various carbapenemases (class A, D and B; 169 strains)
Experiment: Meropenem or tebipenem potentiation by Compounds 97 or 62 (MIC)
Type: cell-based
In short: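 Meropenem and tebipenem MICs measured alone or with Compound 97 or 62 held at a fixed 8 μg/ml in the growth medium. Panel of 169 clinical Enterobacteriaceae isolates expressing class A, D and B carbapenemases, alone or with other beta-lactamases.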

Measured: Meropenem MIC alone (M)

C[C@@H](O)[C@H]1C(=O)N2C(C(=O)O)=C(S[C@@H]3CN[C@H](C(=O)N(C)C)C3)[C@H](C)[C@H]12 [M]
Y (MIC of 1 μg/mL to 10 μg/mL): CF1022 Citrobacter freundii SHV-12(2be), TEM-OSBL(2b), IMP-8 | ECL1055 Enterobacter cloacae KPC-3, TEM | ECL1090 Enterobacter cloacae TEM-1(2b), CTX-M-22, ACT-type, IMP-8 | ECL1092 Enterobacter cloacae TEM-OSBL(2b), ACT-32, VIM-1 | ECL1093 Enterobacter cloacae TEM-OSBL(2b), ACT-32, VIM-1 | KP1054 Klebsiella pneumoniae VIM-1, SHV-11 | KP1065 Klebsiella pneumoniae VIM-1, SHV-11 | KP1173 Klebsiella pneumoniae TEM-33(2br), CTX-M-15, IMP-1 | KP1174 Klebsiella pneumoniae CTX-M-14, IMP-1 | KP1180 Klebsiella pneumoniae SHV-OSBL(2b), TEM-OSBL(2b), CTX-M-15, DHA-1, IMP-26 | KP1184 Klebsiella pneumoniae SHV-OSBL(2b), IMP-1 | KP1188 Klebsiella pneumoniae SHV-OSBL(2b), CTX-M-15, NDM-1 | KP1228 Klebsiella pneumoniae OXA-48 TEM SHV CTX-M-15 | KP1230 Klebsiella pneumoniae OXA-48 TEM SHV CTX-M-15 | KP1231 Klebsiella pneumoniae OXA-48 TEM SHV CTX-M-15 | PM1025 Proteus mirabilis SHV-5(2be), TEM-OSBL(2b), VEB-2, VIM-1 | SM1024 Serratia marcescens TEM-1(2b), IMP-47
Z (MIC of greater than 10 μg/mL): CF1023 Citrobacter freundii SHV-12(2be), TEM-OSBL(2b), CTX-M-3, CMY-34, NDM-1 | EC1061 Escherichia coli NDM-1, CMY-6 | EC1069 Escherichia coli CTX-M-27, NDM-1 | EC1070 Escherichia coli TEM-OSBL(2b), CMY-42, NDM-5 | EC1072 Escherichia coli CTX-M-3, NDM-1 | ECL1045 Enterobacter cloacae VIM-1 | ECL1057 Enterobacter cloacae NDM-1, TEM-1, CTX-M-15 | ECL1084 Enterobacter cloacae CTX-M-15, ACT-16, NDM-1 | ECL1085 Enterobacter cloacae SHV-31(2be), TEM-1(2b), CTX-M-15, NDM-1 | ECL1087 Enterobacter cloacae VIM-1 | ECL1094 Enterobacter cloacae VIM-1 | ECL1095 Enterobacter cloacae SHV-12(2be), TEM-OSBL(2b), CMY-4, ACT-16, VIM-4, OXA-48(c) | ECL1096 Enterobacter cloacae CMY-4, VIM-4, OXA-48(c) | ECL1097 Enterobacter cloacae SHV-31(2be), TEM-OSBL(2b), CTX-M-15, ACT-31, NDM-1 | ECL1098 Enterobacter cloacae TEM-OSBL(2b), DHA-1, ACT-16, NDM-1 | KP1059 Klebsiella pneumoniae VIM-1, SHV-11 | KP1061 Klebsiella pneumoniae KPC-3, TEM-1, SHV-11 | KP1064 Klebsiella pneumoniae KPC-2, TEM-1, SHV-11 | KP1070 Klebsiella pneumoniae KPC-2, SHV-11, TEM-1 | KP1074 Klebsiella pneumoniae KPC-3, SHV-11, TEM | KP1081 Klebsiella pneumoniae NDM-1, TEM-1, SHV-11, CMY-6, CTX-M-15 | KP1158 Klebsiella pneumoniae KPC-2, VIM-1 | KP1159 Klebsiella pneumoniae SHV-1(2b), CTX-M-15, IMP-4 | KP1160 Klebsiella pneumoniae SHV-28(2be), CTX-M-15, IMP-26 | KP1161 Klebsiella pneumoniae NDM-1 | KP1162 Klebsiella pneumoniae SHV-1(2b), CTX-M-15, IMP-4 | KP1163 Klebsiella pneumoniae SHV-11(2b), MOX-1, KPC-2, VIM-1 | KP1164 Klebsiella pneumoniae SHV-12(2be), VIM-1 | KP1165 Klebsiella pneumoniae SHV-11(2b), CTX-M-15, VIM-27 | KP1166 Klebsiella pneumoniae SHV-5(2be), VIM-26 | KP1168 Klebsiella pneumoniae SHV-11(2b), CTX-M-15, VIM-27 | KP1169 Klebsiella pneumoniae SHV-11(2b), VIM-1 | KP1170 Klebsiella pneumoniae SHV-11(2b), CTX-M-15, NDM-1 | KP1172 Klebsiella pneumoniae SHV-31(2be), DHA-1, VIM-1 | KP1175 Klebsiella pneumoniae SHV-OSBL(2b), VIM-1 | KP1176 Klebsiella pneumoniae SHV-12(2be), TEM-OSBL(2b), CMY-13, KPC-2, VIM-1 | KP1177 Klebsiella pneumoniae SHV-OSBL(2b), TEM-OSBL(2b), CTX-M-15, NDM-1 | KP1178 Klebsiella pneumoniae SHV-OSBL(2b), TEM-OSBL(2b), CTX-M-15, NDM-1 | KP1179 Klebsiella pneumoniae SHV-12(2be), TEM-OSBL(2b), CTX-M-15, NDM-7 | KP1181 Klebsiella pneumoniae SHV-OSBL(2b), CTX-M-15, IMP-26 | KP1182 Klebsiella pneumoniae SHV-OSBL(2b), NDM-1, OXA-232(c) | KP1183 Klebsiella pneumoniae SHV-OSBL(2b), TEM-OSBL(2b), CTX-M-15, NDM-1 | KP1185 Klebsiella pneumoniae SHV-OSBL(2b), TEM-OSBL(2b), IMP-4 | KP1186 Klebsiella pneumoniae CTX-M-15, NDM-1 | KP1187 Klebsiella pneumoniae SHV-55(2be), TEM-OSBL(2b), CTX-M-15, NDM-1 | KP1189 Klebsiella pneumoniae TEM-OSBL(2b), CTX-M-15, CTX-M-27, NDM-1 | KP1190 Klebsiella pneumoniae KPC-4 VIM-4 TEM SHV | KP1191 Klebsiella pneumoniae KPC-2 | KP1192 Klebsiella pneumoniae KPC-2 TEM SHV | KP1193 Klebsiella pneumoniae KPC-3 TEM SHV | KP1194 Klebsiella pneumoniae KPC TEM SHV | KP1195 Klebsiella pneumoniae KPC TEM CTX-M-15 | KP1196 Klebsiella pneumoniae KPC TEM SHV CTX-M-15 CMY | KP1197 Klebsiella pneumoniae KPC-3, VIM-1 TEM SHV | KP1198 Klebsiella pneumoniae KPC-3, VIM-1 TEM SHV | KP1199 Klebsiella pneumoniae KPC-3 TEM SHV | KP1200 Klebsiella pneumoniae KPC-3 TEM SHV | KP1210 Klebsiella pneumoniae KPC SHV TEM | KP1211 Klebsiella pneumoniae KPC SHV TEM CTX-M-15 | KP1212 Klebsiella pneumoniae KPC SHV TEM CTX-M-15 | KP1213 Klebsiella pneumoniae KPC SHV TEM CTX-M-15 | KP1214 Klebsiella pneumoniae KPC SHV TEM + 1.9 kb | KP1215 Klebsiella pneumoniae KPC SHV | KP1216 Klebsiella pneumoniae KPC SHV TEM + 1.9 kb | KP1217 Klebsiella pneumoniae KPC SHV TEM + 1.9 kb | KP1218 Klebsiella pneumoniae KPC SHV TEM + 1.9 kb | KP1219 Klebsiella pneumoniae KPC SHV TEM + 1.9 kb | KP1220 Klebsiella pneumoniae KPC SHV TEM + 1.9 kb | KP1221 Klebsiella pneumoniae KPC SHV TEM + 1.9 kb | KP1222 Klebsiella pneumoniae KPC SHV TEM IMP | KP1223 Klebsiella pneumoniae KPC SHV TEM | KP1224 Klebsiella pneumoniae KPC SHV TEM | KP1225 Klebsiella pneumoniae KPC SHV TEM + 1.9 kb CMY | KP1226 Klebsiella pneumoniae KPC SHV TEM + 1.9 kb | KP1227 Klebsiella pneumoniae KPC SHV TEM CTX-M-15 | KP1229 Klebsiella pneumoniae OXA-48 TEM SHV CTX-M-15 | KP1232 Klebsiella pneumoniae OXA-48 TEM SHV CTX-M-15 | KP1234 Klebsiella pneumoniae OXA-48 TEM SHV CTX-M-15 | KP1236 Klebsiella pneumoniae OXA-48 TEM SHV CTX-M-15 | PM1024 Proteus mirabilis TEM-1(2b), CMY-16, VIM-1 | PM1026 Proteus mirabilis DHA-1, IMP-26 | PM1027 Proteus mirabilis VIM-5 | SM1023 Serratia marcescens VIM-4
